Assay results as given in ChEMBL document CHEMBL1201862, “PubChem BioAssay data set” (2004).
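Exposure lasted 48 hours, with cells grown in 96-well plates and compounds tested at five concentrations. GI50 is the concentration that inhibits growth by half.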 The source made the active and inactive calls. No stated cut-off is given here; in the data, active = GI50 up to about 1.1 µM and inactive = higher.

Assays:
Experiment in all cases: NCI anticancer screen, dose series, 48 h
OVCAR-8 = tested on: OVCAR-8
RPMI-8226 = tested on: RPMI-8226
SK-MEL-5 = tested on: SK-MEL-5
SK-MEL-2 = tested on: SK-MEL-2
OVCAR-4 = tested on: OVCAR-4
SK-OV-3 = tested on: SK-OV-3
HOP-62 = tested on: HOP-62
K562 = tested on: K562
NCI-H23 = tested on: NCI-H23
OVCAR-5 = tested on: OVCAR-5
CAKI-1 = tested on: CAKI-1
HT-29 = tested on: HT-29
KM12 = tested on: KM12
COLO 205 = tested on: COLO 205
MOLT-4 = tested on: MOLT-4
EKVX = tested on: EKVX
UACC-257 = tested on: UACC-257
LOX IMVI = tested on: LOX IMVI
SN12C = tested on: SN12C
NCI-H226 = tested on: NCI-H226

Measured: GI50

COc1cccc(C2CC(=O)c3cc(N4CCCC4)ccc3N2)c1 (stereo not given)
inactive: OVCAR-4 23.3 µM | HOP-62 1.75 µM
active: OVCAR-8 0.037 µM | RPMI-8226 0.0492 µM | SK-MEL-5 0.0252 µM | SK-MEL-2 0.0296 µM | SK-OV-3 0.043 µM | K562 0.0237 µM | NCI-H23 0.0265 µM | OVCAR-5 0.0608 µM | CAKI-1 0.0561 µM | HT-29 0.0211 µM | KM12 0.0861 µM | COLO 205 0.0365 µM | MOLT-4 0.0338 µM | EKVX 0.27 µM | UACC-257 0.01 µM | LOX IMVI 0.0516 µM | SN12C 0.0418 µM | NCI-H226 0.0385 µM

COc1cc(/C=C/C2=C(C#N)C(=O)OC2(C)C)ccc1O
inactive: OVCAR-8 51.8 µM | RPMI-8226 20.4 µM | SK-MEL-5 > 100 µM | SK-MEL-2 > 100 µM | SK-OV-3 > 100 µM | HOP-62 43.6 µM | K562 29.1 µM | NCI-H23 > 100 µM | OVCAR-5 > 100 µM | CAKI-1 > 100 µM | HT-29 48.2 µM | KM12 30.9 µM | COLO 205 45.4 µM | MOLT-4 > 100 µM | EKVX > 100 µM | UACC-257 > 100 µM | LOX IMVI 20.7 µM | SN12C 55 µM | NCI-H226 37.3 µM

CC(=O)N1C(Nc2cnc3ccccc3c2)CCN1c1ccccc1 (stereo not given)
inactive: OVCAR-8 > 10 µM | RPMI-8226 > 10 µM | SK-MEL-5 > 10 µM | SK-MEL-2 > 10 µM | OVCAR-4 > 10 µM | SK-OV-3 > 10 µM | HOP-62 > 10 µM | K562 6.58 µM | NCI-H23 > 10 µM | OVCAR-5 > 10 µM | CAKI-1 > 10 µM | HT-29 > 10 µM | COLO 205 > 10 µM | MOLT-4 > 10 µM | EKVX > 10 µM | UACC-257 > 10 µM | LOX IMVI 5.65 µM | SN12C > 10 µM | NCI-H226 > 10 µM

O=C(N/N=C/C=C/c1ccc([N+](=O)[O-])o1)c1ccc(Br)s1
inactive: OVCAR-8 16.9 µM | RPMI-8226 3.78 µM | SK-MEL-5 18.6 µM | SK-MEL-2 23.3 µM | OVCAR-4 18.9 µM | SK-OV-3 > 100 µM | HOP-62 51.2 µM | K562 24.5 µM | NCI-H23 14.9 µM | OVCAR-5 26.3 µM | CAKI-1 27.9 µM | HT-29 17 µM | KM12 17.8 µM | COLO 205 17 µM | MOLT-4 13.3 µM | EKVX 31.2 µM | LOX IMVI 19.9 µM | SN12C 29.6 µM | NCI-H226 22.2 µM

NC(=O)C1(c2ccccc2)Nc2ccccc2S1 (stereo not given)
inactive: OVCAR-8 > 100 µM | RPMI-8226 > 100 µM | SK-MEL-5 > 100 µM | SK-MEL-2 > 100 µM | OVCAR-4 > 10 µM | SK-OV-3 > 100 µM | HOP-62 > 100 µM | K562 > 100 µM | NCI-H23 > 100 µM | OVCAR-5 > 100 µM | CAKI-1 > 100 µM | HT-29 > 100 µM | KM12 > 100 µM | COLO 205 > 100 µM | MOLT-4 > 100 µM | EKVX > 100 µM | LOX IMVI > 100 µM | SN12C > 100 µM | NCI-H226 > 100 µM

COc1cc2c(cc1OC)-c1c(cnn1C1OC(COC(C)=O)C(OC(C)=O)C(OC(C)=O)C1OC(C)=O)CC2 (stereo not given)
inactive: OVCAR-8 > 100 µM | RPMI-8226 > 42.8 µM | SK-MEL-5 > 83.4 µM | SK-MEL-2 > 100 µM | OVCAR-4 > 100 µM | SK-OV-3 > 100 µM | HOP-62 > 100 µM | K562 33 µM | NCI-H23 > 100 µM | OVCAR-5 > 100 µM | CAKI-1 > 100 µM | HT-29 > 100 µM | KM12 > 100 µM | COLO 205 > 100 µM | MOLT-4 > 81.5 µM | EKVX > 100 µM | UACC-257 > 100 µM | LOX IMVI > 100 µM | NCI-H226 > 100 µM

Oc1ccccc1-c1nn2c(CCCCCCCCc3nnc4sc(-c5ccccc5O)nn34)nnc2s1
inactive: OVCAR-8 18.7 µM | RPMI-8226 11.1 µM | SK-MEL-5 18.3 µM | SK-MEL-2 15.9 µM | OVCAR-4 14.1 µM | SK-OV-3 15.2 µM | HOP-62 8.71 µM | K562 7.6 µM | NCI-H23 18.8 µM | OVCAR-5 6.27 µM | CAKI-1 5.11 µM | HT-29 11.1 µM | KM12 21 µM | COLO 205 37.2 µM | MOLT-4 8.39 µM | EKVX 22.4 µM | UACC-257 20.3 µM | LOX IMVI 9.46 µM | SN12C 19.5 µM | NCI-H226 > 48.9 µM

CC(=O)OC(C(=O)O)C(OC(C)=O)C(OC(C)=O)C(OC(C)=O)C(=O)O (stereo not given)
inactive: OVCAR-8 > 100 µM | RPMI-8226 > 100 µM | SK-MEL-5 > 100 µM | SK-MEL-2 > 100 µM | SK-OV-3 > 100 µM | HOP-62 > 100 µM | K562 > 100 µM | NCI-H23 > 100 µM | OVCAR-5 > 100 µM | CAKI-1 > 100 µM | HT-29 > 100 µM | KM12 > 100 µM | COLO 205 > 100 µM | MOLT-4 > 100 µM | EKVX > 100 µM | UACC-257 > 100 µM | LOX IMVI > 100 µM | SN12C > 100 µM | NCI-H226 > 100 µM

O=Cc1cn(CCCCCCCCn2cc(C=O)c3ccccc32)c2ccccc12
inactive: OVCAR-8 > 10 µM | RPMI-8226 3.96 µM | SK-MEL-5 4.17 µM | SK-MEL-2 > 10 µM | OVCAR-4 > 10 µM | SK-OV-3 > 10 µM | HOP-62 > 10 µM | K562 3.27 µM | NCI-H23 2.19 µM | OVCAR-5 8.79 µM | CAKI-1 > 10 µM | HT-29 > 10 µM | KM12 > 10 µM | COLO 205 > 10 µM | MOLT-4 6.37 µM | EKVX > 10 µM | LOX IMVI 7.57 µM | SN12C > 10 µM | NCI-H226 8.24 µM

O=C(O)CSCc1cc2c(O)c(c1)Cc1cc(CSCC(=O)O)cc(c1O)Cc1cc(CSCC(=O)O)cc(c1O)Cc1cc(CSCC(=O)O)cc(c1O)C2
inactive: OVCAR-8 > 100 µM | RPMI-8226 > 100 µM | SK-MEL-2 > 100 µM | OVCAR-4 > 100 µM | SK-OV-3 > 100 µM | HOP-62 > 100 µM | K562 > 100 µM | NCI-H23 > 100 µM | OVCAR-5 > 100 µM | CAKI-1 > 100 µM | HT-29 > 100 µM | KM12 > 100 µM | COLO 205 > 100 µM | MOLT-4 > 100 µM | EKVX > 100 µM | UACC-257 > 100 µM | LOX IMVI > 100 µM | SN12C > 100 µM | NCI-H226 89.5 µM

COC(=O)c1ccc(NCC2=C(Br)C(=O)C=CC2=O)cc1Cl
inactive: OVCAR-8 19.3 µM | RPMI-8226 40.3 µM | SK-MEL-5 20.1 µM | SK-MEL-2 20.2 µM | OVCAR-4 24.4 µM | SK-OV-3 > 100 µM | K562 3.54 µM | NCI-H23 21 µM | OVCAR-5 21.8 µM | CAKI-1 26.9 µM | HT-29 17.7 µM | KM12 34.5 µM | COLO 205 17.8 µM | MOLT-4 17.7 µM | EKVX 14.1 µM | UACC-257 23.8 µM | LOX IMVI 14.9 µM | SN12C 16.5 µM | NCI-H226 74.8 µM

CCOC(=O)/C(C(=O)Nc1ccc(Cl)cc1)=C(/N)N1CCCC1
inactive: OVCAR-8 > 100 µM | RPMI-8226 97.9 µM | SK-MEL-2 49.3 µM | OVCAR-4 69.3 µM | SK-OV-3 > 100 µM | HOP-62 > 100 µM | K562 66.7 µM | NCI-H23 > 100 µM | OVCAR-5 > 100 µM | CAKI-1 > 100 µM | HT-29 > 100 µM | KM12 > 100 µM | COLO 205 > 100 µM | MOLT-4 71.6 µM | EKVX > 100 µM | UACC-257 > 100 µM | LOX IMVI > 100 µM | SN12C > 100 µM | NCI-H226 > 100 µM

NC[C@H]1Nc2ccccc2[C@@H](O)C1O (stereo not given in full)
inactive: OVCAR-8 > 100 µM | RPMI-8226 > 100 µM | SK-MEL-5 > 100 µM | SK-MEL-2 > 100 µM | OVCAR-4 > 100 µM | SK-OV-3 > 100 µM | HOP-62 > 100 µM | K562 > 100 µM | NCI-H23 > 100 µM | OVCAR-5 > 100 µM | CAKI-1 > 100 µM | HT-29 > 100 µM | KM12 > 100 µM | COLO 205 > 100 µM | MOLT-4 > 100 µM | EKVX > 100 µM | UACC-257 > 100 µM | LOX IMVI > 100 µM | SN12C > 100 µM | NCI-H226 > 100 µM

COc1cc2cc(C(=O)N3CC(CCl)c4c3cc(N(C)C)c3ccccc43)[nH]c2c(OC)c1OC (stereo not given)
active: OVCAR-8 < 0.01 µM | RPMI-8226 0.0144 µM | SK-MEL-5 < 0.01 µM | SK-MEL-2 < 0.01 µM | OVCAR-4 0.0163 µM | SK-OV-3 0.0137 µM | HOP-62 < 0.01 µM | K562 < 0.01 µM | NCI-H23 < 0.01 µM | OVCAR-5 < 0.0108 µM | CAKI-1 < 0.01 µM | HT-29 < 0.01 µM | KM12 0.0117 µM | COLO 205 0.012 µM | MOLT-4 < 0.01 µM | EKVX < 0.01 µM | UACC-257 0.0273 µM | LOX IMVI < 0.01 µM | SN12C < 0.01 µM | NCI-H226 0.0132 µM
